# Patent US20250082633A1, “COMPOUNDS AND METHODS FOR MODULATING SPLICING” (REMIX THERAPEUTICS INC., priority 2021, published 2025)
# pIC50: −log10 of the molar value. Read-outs that look alike come from different tables or passages of the source.
# What was measured:
# [1] = system: HTT mRNA; assay: RT-qPCR splicing assay, HTT canonical (CJ) and alternative (AJ) junction mRNA; type: cell-based; settings: Homo sapiens; for pIC50: read-out: HTT CJ IC50; for AC50: read-out: HTT AJ AC50
# Procedure, shortened: (§1)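 Splice-junction mRNAs (CJ, AJ) measured by TaqMan one-step RT-qPCR on cell lysates, using PPIA as reference for adherent A673 and GAPDH or GUSB for K562. Cells exposed for 24 h to 11 threefold concentrations up to 10 uM final, with DMSO at or below 0.25%.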
# [2] = system: MYB mRNA; assay: RT-qPCR splicing assay, MYB canonical (CJ) and alternative (AJ) junction mRNA; type: cell-based; settings: Homo sapiens; for pIC50: read-out: MYB CJ IC50; for AC50: read-out: MYB AJ AC50
# Procedure, shortened: as §1
# [3] = system: HiBiT-tagged HTT protein in K562 cells; assay: HiBit protein abundance assay, HTT; type: cell-based, human; settings: K562 HiBiT-modified cells, 24 hours, luminescence
# Procedure, shortened: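 K562 lines with endogenously HiBiT-tagged target, 10000 cells/well in IMDM + 1% FBS, treated 24 h at 37 °C with 10-point 3-fold dilutions (top 10 μM final, DMSO ≤0.25%). Abundance read by Nano-Glo HiBiT lytic luminescence; IC50 is concentration giving 50% of untreated level, four-parameter fit.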
# [4] = decrease in CJ mRNA levels, larger panel of genes, Table 3
# [5] = decrease in canonical junction mRNA, A673 or K562 cells, 24 hours treatment, Table 2
# [6] = increase in alternative junction mRNA, A673 or K562 cells, 24 hours treatment, Table 2
"pIC50 [1, 4]","pIC50 [1, 5]","pIC50 [2, 4]","pIC50 [2, 5]",pIC50 [3],Structure (SMILES),"AC50 [1, 6]","AC50 [2, 6]",AC50 ([1]; 24 h),pIC50 ([1]; 24 h),pIC50 [1],AC50 ([2]; 24 h),pIC50 ([2]; 24 h),pIC50 [2]
> 7.00,> 7.00,6.00 to 7.00,6.00 to 7.00,> 7.00,"Cc1cn2nc(-c3cc(F)c4nn(C5CCNCC5)cc4c3)cc2c(C)n1 [Compound 124, 2-[7-fluoro-2-(4-piperidyl)indazol-5-yl]-4,6-dimethyl-pyrazolo[1,5-a]pyrazine]",< 100 nM,100 to 1000 nM,,,,,,
> 7.00,> 7.00,6.00 to 7.00,6.00 to 7.00,> 7.00,"CCN1CCC(n2cc3cc(-c4cc(C)c5nc(C)cn5n4)cc(F)c3n2)CC1 [Compound 146, 6-[2-(1-ethyl-4-piperidyl)-7-fluoro-indazol-5-yl]-2,8-dimethyl-imidazo[1,2-b]pyridazine]",< 100 nM,100 to 1000 nM,,,,,,
6.00 to 7.00,6.00 to 7.00,5.00 to 6.00,5.00 to 6.00,6.00 to 7.00,"Cc1cn2cc(-c3cc(F)c4nn(C5CCNCC5)cc4c3)nc(C)c2n1 [Compound 132, 6-[7-fluoro-2-(4-piperidyl)indazol-5-yl]-2,8-dimethyl-imidazo[1,2-a]pyrazine]",100 to 1000 nM,1000 to 10000 nM,,,,,,
> 7.00,> 7.00,6.00 to 7.00,6.00 to 7.00,> 7.00,Cc1cn2nc(-c3cc(F)c4nn(C5CCN(CCF)CC5)cc4c3)cc(C)c2n1 [Compound 152],100 to 1000 nM,100 to 1000 nM,,,,,,
> 7.00,> 7.00,6.00 to 7.00,6.00 to 7.00,> 7.00,"Cc1cn2nc(-c3ccc4nn(C5CCNCC5)cc4c3)cc(C)c2n1 [Compound 192, 2,8-dimethyl-6-[2-(4-piperidyl)indazol-5-yl]imidazo[1,2-b]pyridazine]",100 to 1000 nM,100 to 1000 nM,,,,,,
> 7.00,> 7.00,6.00 to 7.00,6.00 to 7.00,6.00 to 7.00,"Cc1cn2nc(-c3cc4cn(C5CCNCC5)nc4c(O)n3)cc(C)c2n1 [Compound 139, 5-(2,8-dimethylimidazo[1,2-b]pyridazin-6-yl)-2-(4-piperidyl)-6H-pyrazolo[3,4-c]pyridin-7-one]",< 100 nM,100 to 1000 nM,,,,,,
> 7.00,> 7.00,6.00 to 7.00,6.00 to 7.00,6.00 to 7.00,"Cc1cn2nc(-c3ccc4nn(C5CCNCC5)cc4n3)cc(C)c2n1 [Compound 138, 2,8-dimethyl-6-[2-(4-piperidyl)pyrazolo[4,3-b]pyridin-5-yl]imidazo[1,2-b]pyridazine]",100 to 1000 nM,1000 to 10000 nM,,,,,,
6.00 to 7.00,6.00 to 7.00,6.00 to 7.00,6.00 to 7.00,6.00 to 7.00,"Cn1cc2cc(-c3ccc4nn(C5CCNCC5)cc4n3)c(O)cc2n1 [Compound 110, 2-methyl-5-[2-(4-piperidyl)pyrazolo[4,3-b]pyridin-5-yl]indazol-6-ol]",1000 to 10000 nM,100 to 1000 nM,,,,,,
> 7.00,> 7.00,6.00 to 7.00,6.00 to 7.00,> 7.00,Cc1cn2nc(-c3cc(F)c4nn([C@@H]5CCNC6(CC6)C5)cc4c3)cc(C)c2n1 [Compound 173],< 100 nM,100 to 1000 nM,,,,,,
6.00 to 7.00,6.00 to 7.00,5.00 to 6.00,5.00 to 6.00,6.00 to 7.00,"Fc1cc(-c2ccc3cnccc3c2)cc2cn(C3CCNCC3)nc12 [Compound 161, 6-[7-fluoro-2-(4-piperidyl)indazol-5-yl]isoquinoline]",1000 to 10000 nM,1000 to 10000 nM,,,,,,
< 5.00,< 5.00,< 5.00,< 5.00,< 5.00,"Cc1cc(-n2cc3cc(N4CCNCC4)ccc3n2)cc2cn(C)nc12 [Compound 121, 2,7-dimethyl-5-(5-piperazin-1-ylindazol-2-yl)indazole]",> 10000 nM,> 10000 nM,,,,,,
5.00 to 6.00,5.00 to 6.00,< 5.00,< 5.00,5.00 to 6.00,"Cc1c(O)c(-c2ccc3nn(C4CCNCC4)nc3n2)cc2cn(C)nc12 [Compound 113, 2,7-dimethyl-5-[2-(4-piperidyl)triazolo[4,5-b]pyridin-5-yl]indazol-6-ol]",1000 to 10000 nM,> 10000 nM,,,,,,
> 7.00,> 7.00,> 7.00,> 7.00,> 7.00,Cc1cn2nc(-c3cc(F)c4nn([C@H]5CCNC6(CC6)C5)cc4c3)cc(C)c2n1 [Compound 172],< 100 nM,< 100 nM,,,,,,
> 7.00,> 7.00,6.00 to 7.00,6.00 to 7.00,> 7.00,"Cc1cn2nc(-c3cc(F)c4nn(C5CCNC6(CCC6)C5)cc4c3)cc(C)c2n1 (stereo not drawn) [Compound 189, 6-[2-(5-azaspiro[3.5]nonan-8-yl)-7-fluoro-indazol-5-yl]-2,8-dimethyl-imidazo[1,2-b]pyridazine]",< 100 nM,100 to 1000 nM,,,,,,
< 5.00,< 5.00,< 5.00,< 5.00,< 5.00,Cn1cc2cc(-c3cc(Cl)c4nn(C5CCNCC5)cc4n3)c(O)cc2n1 [Compound 141],> 10000 nM,> 10000 nM,,,,,,
< 5.00,< 5.00,< 5.00,< 5.00,< 5.00,"COc1cc2nn(C3CCNCC3)cc2cc1-c1cc(C)c2nc(C)cn2n1 [Compound 159, 6-(6-methoxy-2-(piperidin-4-yl)-2H-indazol-5-yl)-2,8-dimethylimidazo[1,2-b]pyridazine]",> 10000 nM,> 10000 nM,,,,,,
6.00 to 7.00,6.00 to 7.00,6.00 to 7.00,6.00 to 7.00,6.00 to 7.00,"Cc1cn2nc(-c3cc4cn(C5CCNCC5)nc4cn3)cc(C)c2n1 [Compound 147, 2,8-dimethyl-6-[2-(4-piperidyl)pyrazolo[3,4-c]pyridin-5-yl]imidazo[1,2-b]pyridazine]",100 to 1000 nM,100 to 1000 nM,,,,,,
6.00 to 7.00,6.00 to 7.00,6.00 to 7.00,6.00 to 7.00,6.00 to 7.00,"Cn1cc2cc(-c3cc(F)c4nn(C5CCNC6(CC6)C5)cc4c3)cc(F)c2n1 (stereo not drawn) [Compound 108, 2-(4-azaspiro[2.5]octan-7-yl)-7-fluoro-5-(7-fluoro-2-methyl-indazol-5-yl)indazole]",100 to 1000 nM,1000 to 10000 nM,,,,,,
> 7.00,> 7.00,6.00 to 7.00,6.00 to 7.00,> 7.00,"Cc1cn2nc(-c3cc(F)c4nn(C5CCN(C)CC5)cc4c3)cc(C)c2n1 [Compound 150, 6-[7-fluoro-2-(1-methyl-4-piperidyl)indazol-5-yl]-2,8-dimethyl-imidazo[1,2-b]pyridazine]",< 100 nM,100 to 1000 nM,,,,,,
> 7.00,> 7.00,6.00 to 7.00,6.00 to 7.00,> 7.00,"Cc1cc(-c2cc(F)c3nn(C4CCNCC4)cc3c2)cc2cn(C)nc12 [Compound 133, 5-(2,7-dimethylindazol-5-yl)-7-fluoro-2-(4-piperidyl)indazole]",< 100 nM,100 to 1000 nM,,,,,,
> 7.00,> 7.00,6.00 to 7.00,6.00 to 7.00,> 7.00,"Cc1c(O)c(-c2ccc3nn(C4CCNCC4)cc3n2)cc2cn(C)nc12 [Compound 109, 2,7-dimethyl-5-[2-(4-piperidyl)pyrazolo[4,3-b]pyridin-5-yl]indazol-6-ol]",100 to 1000 nM,100 to 1000 nM,,,,,,
6.00 to 7.00,6.00 to 7.00,5.00 to 6.00,5.00 to 6.00,6.00 to 7.00,"Cn1cc2cc(-c3cc(F)c4nn(C5CCNCC5)nc4c3)cc(F)c2n1 [Compound 103, 4-fluoro-6-(7-fluoro-2-methyl-indazol-5-yl)-2-(4-piperidyl) benzotriazole]",100 to 1000 nM,1000 to 10000 nM,,,,,,
6.00 to 7.00,6.00 to 7.00,5.00 to 6.00,5.00 to 6.00,6.00 to 7.00,"Cc1cn2nc(-c3cc(O)c4nn(C5CCNCC5)cc4c3)cc(C)c2n1 [Compound 156, 5-(2,8-dimethylimidazo[1,2-b]pyridazin-6-yl)-2-(piperidin-4-yl)-2H-indazol-7-ol]",100 to 1000 nM,1000 to 10000 nM,,,,,,

Structure (SMILES),"pIC50 [1, 4]","pIC50 [1, 5]","pIC50 [2, 4]","pIC50 [2, 5]",pIC50 [3],"AC50 [1, 6]","AC50 [2, 6]",AC50 ([1]; 24 h),pIC50 ([1]; 24 h),pIC50 [1],AC50 ([2]; 24 h),pIC50 ([2]; 24 h),pIC50 [2]
"Cc1cn2nc(-c3cc(F)c4nn(C5CCN(C6CCC6)CC5)cc4c3)cc(C)c2n1 [Compound 151, 6-[2-(1-cyclobutyl-4-piperidyl)-7-fluoro-indazol-5-yl]-2,8-dimethyl-imidazo [1,2-b] pyridazine]",,,,,> 7.00,,,< 100 nM,> 7.00,> 7.00,100 to 1000 nM,> 7.00,> 7.00
